Experiment [1] relates to RT112 bladder cancer cell line. Kind of experiment: CellTiter-Glo viability assay, RT112. It counts as cell-based. Conditions: Homo sapiens. On the procedure: (§1) Cellular viability was assessed using the CellTiter-Glo Luminescent Cell Viability Assay (Promega) according to manufacturer protocols. Bladder cancer cell lines were seeded into 96-well plates based on optimal growth rates determined empirically for each line. Twenty-four hours after plating, cells were dosed with graded concentrations of ganetespib for 72 hours. CellTiter-Glo was added (50% v/v) to the cells, and the plates incubated for 10 minutes prior to luminescent detection in a SpectraMax Plus 384 microplate reader (Molecular Devices). Data were normalized to percent of control and IC50 values used to determine the sensitivity of each line. For the comparative analyses with ganetespib and BGJ398, RT112 cells were treated with graded concentrations of each compound for 72 hours and cell viability measured as above. For the evaluation of apoptotic induction, caspase activity was assessed using the Caspase-Glo 3/7 assay (Promega) according to manufacturer protocols. Twenty-four hours after plating, RT112 cells were treated with graded concentrations of ganetespib for 24 hours. Caspase-Glo was added to cells (50% v/v) and the plates incubated for 1 hour prior to luminescent detection.
Background: Cellular ATP, detected with luciferase, serves as a proxy for viable cell number.

Experiment [2] relates to 647-V bladder cancer cell line. In words: CellTiter-Glo viability assay, 647-V. It counts as cell-based. As to conditions: Homo sapiens, FGFR3 status WT, 72 hours, read-out: Ganetespib IC50. As to the method:
as §1

Experiment [3] concerns DHS1 bladder cancer cell line. Kind of experiment: CellTiter-Glo viability assay, DHS1. It counts as cell-based. Conditions: FGFR3 status WT, 72 hours, read-out: Ganetespib IC50. On the procedure:
as §1

Experiment [4] has as its system TCCSUP bladder cancer cell line. In words: CellTiter-Glo viability assay, TCCSUP. It counts as cell-based. As to conditions: Homo sapiens, TCC-SUP, FGFR3 status WT, 72 hours, read-out: Ganetespib IC50. As to the method:
as §1

Experiment [5] concerns HT-1197 bladder cancer cell line. Kind of experiment: CellTiter-Glo viability assay, HT-1197. It counts as cell-based. Conditions: Homo sapiens, HT1197, FGFR3 status WT, 72 hours, read-out: Ganetespib IC50. On the procedure: as §1
Experiment [6] deals with KU-19-19 bladder cancer cell line. In words: CellTiter-Glo viability assay, KU-19-19. As to conditions: Homo sapiens, FGFR3 status WT, 72 hours, read-out: Ganetespib IC50. It counts as cell-based. On the procedure: as §1
The subject of experiment [7] is T24 bladder cancer cell line. In words: CellTiter-Glo viability assay, T24. It counts as cell-based. As to conditions: FGFR3 status WT, 72 hours, read-out: Ganetespib IC50. On the procedure: as §1
In experiment [8] the test system is SCaBER bladder cancer cell line. Kind of experiment: CellTiter-Glo viability assay, SCaBER. It counts as cell-based. As to conditions: Homo sapiens, FGFR3 status WT, 72 hours, read-out: Ganetespib IC50. As to the method:
as §1

Experiment [9] concerns 97-7 bladder cancer cell line. Kind of experiment: CellTiter-Glo viability assay, 97-7. It counts as cell-based. Conditions: FGFR3 status S249C, 72 hours, read-out: Ganetespib IC50. On the procedure:
as §1

Experiment [10] deals with SW-1710 bladder cancer cell line. Kind of experiment: CellTiter-Glo viability assay, SW-1710. It counts as cell-based. Conditions: Homo sapiens, SW1710, FGFR3 status WT, 72 hours, read-out: Ganetespib IC50. On the procedure:
as §1

Experiment [11] concerns HT-1376 bladder cancer cell line. In words: CellTiter-Glo viability assay, HT-1376. It counts as cell-based. Conditions: Homo sapiens, FGFR3 status WT, 72 hours, read-out: Ganetespib IC50. As to the method: as §1
For the next experiment, the system named is SW1463 cells. In words: Cell viability assay, SW1463 colorectal cancer cells. As to conditions: Homo sapiens, read-out: IC50 based on cell viability. On the procedure: (§2) 24 hours after transfection, […] were seeded in triplicate in 96-well plates one day before treatment. Cells were treated with inhibitors and drugs for 48 hours and subjected to the CellTiterGlo Luminescent Cell Viability assay (Promega, Madison Wis., USA).

Experiment [12] deals with MGH-U3 bladder cancer cell line. In words: CellTiter-Glo viability assay, MGH-U3. It counts as cell-based. Conditions: FGFR3 status Y375C, 72 hours, read-out: Ganetespib IC50. On the procedure:
as §1

The subject of experiment [13] is FGFR3-TAAC3 in RT112 cells. In words: Western blotting of FGFR3-TAAC3 and signaling proteins in RT112 cells. It counts as cell-based. Conditions: 200 nM ganetespib. On the procedure: Following in vitro assays, tumor cells were disrupted in lysis buffer on ice for 10 minutes. Lysates were clarified by centrifugation and equal amounts of proteins resolved by SDS-PAGE before transfer to nitrocellulose membranes (Bio-Rad). Membranes were blocked with StartingBlock T20 blocking buffer (Thermo Scientific) and immunoblotted with the indicated antibodies. Antibody-antigen complexes were visualized using an Odyssey system (LI-COR).
(In general: Immunoblotting shows a protein as a band on a membrane.)

Experiment [14] concerns RT4 bladder cancer cell line. Kind of experiment: CellTiter-Glo viability assay, RT4. It counts as cell-based. As to the method:
as §1

In experiment [15] the test system is panel of eleven CRC-derived cell lines. In words: Proliferation assay in CRC-derived cell lines (Celigo confluence). It counts as cell-based. Conditions: Homo sapiens, 96 h; range across eleven CRC cell lines; four days; read-out: Drug concentrations that inhibited the growth rate by 50%. On the procedure: Eleven cell lines derived from human colorectal cancers (CRC) were cultured in RPMI (Invitrogen, Darmstadt, Germany) supplemented with 10% FCS (ThermoScientific, Waltham Mass., USA), 2 mM L-glutamine and Penicillin-Streptomycin (Invitrogen). Cell-line cross-contaminatino was excluded using short tandem repeat profiling. Specific knockdown of target genes was performed using pre-designed Silencer Select siRNAs (s231075 and s231076, designated s75 and s76) or control siRNAs (scrambled, all from Ambion, Hamburg, Germany) with a final concentration of 5 nM. Overexpression was performed with pCMV-SPORT6 vector constructs. For both up- and downregulation, Lipofectamine 2000 (Invitrogen) was applied in a forward transfection protocol. Ganetespib (Synta Pharma, Lexington Mass., USA) and 17AAG (Calbiochem, Darmstadt, Germany) were dissolved in DMSO (50 mM and 5 mM stocks, respectively) and diluted to the indicated concentrations with culture medium.
For cell proliferation analysis, cells were seeded at 10^5 cells/well in 12-well plates 24 hours prior to treatment. […] Over the course of the 4-day treatment, cell confluence was measured by brightfield microscopy using a Celigo Adherent Cell Cytometer (Brooks, Chelmsford Mass., USA). Confluence was calculated with the Celigo software program.

Another experiment concerns HT29 cells. In words: Cell viability assay, HT29 colorectal cancer cells. As to conditions: Homo sapiens, HT-29, read-out: IC50 based on cell viability. On the procedure:
as §2

Like-named read-outs stand apart in the source and are kept apart here.

Take `CC(C)c1cc(-c2n[nH]c(=O)n2-c2ccc3c(ccn3C)c2)c(O)cc1O` [ganetespib]: the IC50 in experiment [1] (RT-112, 72-hour combination viability assay, single inhibitor, read-out: approximate IC50 concentrations) is about 0.0096 µM; in experiment [1] (RT-112, FGFR3 status FGFR3-TACC3, 72 hours, read-out: Ganetespib IC50), 0.009 µM; in experiment [2] it was 0.027 µM; in [3] it was 0.006 µM; in experiment [4] it was 0.142 µM; in experiment [5], 0.053 µM. The IC50 amounted to 0.036 µM in [6]; 0.007 µM in experiment [7]; 0.01 µM in experiment [8]; 0.038 µM in experiment [9]; 0.006 µM in experiment [10]; 0.021 µM in experiment [11]. In addition, the IC50 was 0.1 µM in the experiment with SW1463 cells; 0.053 µM in [12]; over 1 µM in experiment [14] (72 hours (FIG. 8), read-out: IC50 values); 1.73 µM in experiment [14] (FGFR3 status FGFR3-TACC3, 72 hours, read-out: Ganetespib IC50); 0.036 to 2.5 µM in experiment [15]; 2 µM in the experiment with HT29 cells. For the same molecule, the “time to destabilization of the FGFR3-TAAC3 fusion and alterations in downstream signaling” value in [13] is at most 4 h.

The values above are taken from patent US20160324863A1, “TARGETED CANCER TREATMENT BY HSP90 INHIBITORS GANETESPIB AND NVP-AUY922” (SYNTA PHARMACEUTICALS CORP., priority 2014, published 2016).
